Entries after “also recorded” stand apart in the source; their conditions may differ.
Legend:
[1] = test system: MCF-7 cells; experiment: CCK-8 cell viability assay, MCF-7; assay type: cell-based; settings: MCF-7 human breast cancer cells, CCK-8, 24 h, mean ± SEM, n = 3
Protocol: (§1) Human colorectal adenocarcinoma cells (HT-29, ATCC® HTB-38), adenocarcinomic human alveolar basal epithelial cells (A549, ATCC® CCL-185), and prostate cancer (PC-3, ATCC® CRL-1435) were cultured in the growth medium, containing Roswell Park Memorial Institute Medium (RPMI1640) WelGENE, Daegu, Korea supplemented with 10% (v/v) fetal bovine serum (FBS, Gibco, Grand Island, NY, USA) and 1% antibiotics-antimycotics (Gibco). Human breast adenocarcinoma cells (MCF-7, ATCC® HTB-22™), hepatocellular carcinoma (HepG2, ATCC® HB-8065™), Rattus brain glioma (C6, ATCC ® CRL-2303™), and human renal carcinoma (Caki-2, ATCC® HTB-47™) cells were cultured in Dulbecco’s modified Eagle’s medium (DMEM, WelGENE, Daegu, Korea) supplemented with 10% (v/v) FBS (Gibco) and 1% antibiotics-antimycotics (Gibco). Mouse brain neural (NE-4C, ATCC® CRL-2925™) and human cervix adenocarcinoma cells (HeLa, ATCC® CCL-2™) were cultured in Eagle’s minimum essential medium (EMEM, ATCC® 30-2003™) supplemented with 10% FBS (Gibco) and 1% antibiotics-antimycotics (Gibco). Mouse liver normal cells (AML12, ATCC® CRL-2254™) were cultured in DMEM/F-12 (WelGENE) supplemented with 10% FBS (Gibco), 1 × ITS (10 μg/mL insulin, 5.5 μg/mL transferrin, 6.7 ng/mL selenium, Gibco), […] 1% antibiotics-antimycotics (Gibco). Human breast epithelial cells (MCF 10A, ATCC® CRL-10317™) were cultured in DMEM/F-12 (WelGENE) supplemented with 5% horse serum (Gibco), 20 ng/mL epidermal growth factor (EGF, Peprotech Inc., Rocky Hill, NJ, USA), […] (Sigma-Aldrich, St. Louis, MO, USA), 100 ng/mL colera toxin (Sigma-Aldrich), 10 μg/mL insulin (Sigma-Aldrich) and 1% antibiotics- (Gibco). Human colon normal epithelial cells (FHC, ATCC® CRL-18317™) were cultured in DMEM/F-12 (WelGENE) supplemented with 10% FBS (Gibco), 10 ng/mL cholera toxin (Sigma-Aldrich), 20 ng/mL EGF (Peprotech Inc.), 100 μg/mL hydrocortisone (Sigma-Aldrich), 1 × ITS (10 μg/mL insulin, 5.5 μg/mL transferrin, 6.7 ng/mL selenium, Gibco) and 1% antibiotics-antimycotics (with 100 units penicillin, 100 μg streptomycin and 250 ng amphotericin B per mL, Gibco). Cells were incubated in a humidified 5% CO2 atmosphere at 37 °C.
(§2) To evaluate cytotoxicity, cells were seeded in a 96-well plate (FHC, 0.5 × 10^4 cells/well; Caki-2 and MCF 10A, 1 × 10^4 cells/well; AML12, 1.2 × 10^4 cells/well; HeLa, HEK-293, A549, and PC-3, 1.5 × 10^4 cells/well; HT-29, MCF-7, C6, HepG2, and NE-4C, 2 × 10^4 cells/well). […] In addition, cell counting kit-8 (CCK-8, Dojindo Laboratories, Kumamoto, Japan) solution was added to each well, and the plate was incubated for 2 h. The absorbance was then measured at 450 nm using a microplate reader (SpectraMax i3, Molecular Devices, San Jose, CA, USA). The IC50 and logIC50 values were calculated in GraphPad Prism (GraphPad Prism Software Inc. Version 5.02, San Diego, CA, USA). All experiments were performed, independently, three times. The graph of logIC50 values represents the average value.

[2] = test system: PC-3 cells; experiment: CCK-8 cell viability assay, PC-3; assay type: cell-based; settings: PC-3 human prostate cancer cells, CCK-8, 24 h, mean ± SEM, n = 3
Protocol: as §1, §2

[3] = test system: HT-29 cells; experiment: CCK-8 cell viability assay, HT-29; assay type: cell-based; settings: HT-29 human colon cancer cells, CCK-8, 24 h, mean ± SEM, n = 3
Protocol: as §1, §2

[4] = test system: A549 cells; experiment: CCK-8 cell viability assay, A549; assay type: cell-based; settings: A549 human lung cancer cells, CCK-8, 24 h, mean ± SEM, n = 3
Protocol: as §1, §2

[5] = test system: FHC cells; experiment: CCK-8 cell viability assay, FHC normal cells; assay type: cell-based; settings: FHC normal human colon epithelial cells, CCK-8, 24 h, mean ± SEM, n = 3
Protocol: as §1, §2

[6] = test system: HepG2 cells; experiment: CCK-8 cell viability assay, HepG2; assay type: cell-based; settings: HepG2 human hepatic carcinoma cells, CCK-8, 24 h, mean ± SEM, n = 3
Protocol: as §1, §2

[7] = test system: HeLa cells; experiment: CCK-8 cell viability assay, HeLa; assay type: cell-based; settings: HeLa human cervical cancer cells, CCK-8, 24 h, mean ± SEM, n = 3
Protocol: as §1, §2

[8] = test system: MCF-10A cells; experiment: CCK-8 cell viability assay, MCF-10A normal cells; assay type: cell-based; settings: MCF-10A normal human breast epithelial cells, CCK-8, 24 h, mean ± SEM, n = 3
Protocol: as §1, §2

[9] = test system: C6 cells; experiment: CCK-8 cell viability assay, C6; assay type: cell-based, Rattus; settings: C6 brain glioma cells, CCK-8, 24 h, mean ± SEM, n = 3
Protocol: as §1, §2

[10] = test system: NE-4C cells; experiment: CCK-8 cell viability assay, NE-4C normal cells; assay type: cell-based; settings: NE-4C mouse brain neural stem cells, CCK-8, 24 h, mean ± SEM, n = 3
Protocol: as §1, §2

[11] = test system: AML12 cells; experiment: CCK-8 cell viability assay, AML12 normal cells; assay type: cell-based; settings: AML12 normal mouse liver hepatocyte cells, CCK-8, 24 h, mean ± SEM, n = 3
Protocol: as §1, §2

[12] = test system: Caki-2 cells; experiment: CCK-8 cell viability assay, Caki-2; assay type: cell-based; settings: Caki-2 human renal cancer cells, CCK-8, 24 h, mean ± SEM, n = 3
Protocol: as §1, §2

[13] = test system: HEK-293 cells; experiment: CCK-8 cell viability assay, HEK-293 normal cells; assay type: cell-based; settings: HEK-293 human embryonic kidney cells, CCK-8, 24 h, mean ± SEM, n = 3
Protocol: as §2

[14] = Solubility in water / aqueous media; assay type: physicochemical
[15] = Stability in buffered aqueous solution by UV-Vis spectroscopy; assay type: physicochemical; settings: for Stability, time-dependent UV-Vis spectrum: 1 mM in PBS (L1Pt: 2% DMSO in PBS), physiological pH 7.4, t = 0, 7, 24 h, 200-450 nm; for Stability, time-dependent UV-Vis spectrum at other pH-values: 1 mM in PBS, acidic (pH 2), weakly acidic (pH 5), alkaline (pH 12), t = 0, 7, 24 h
Protocol: An indispensable feature of any promising anticancer agent is its thermodynamic stability in aqueous media. All prospective agents should be able to reach their target under the conditions encountered in living organisms. Therefore, the stability of the compounds was measured at 1 mM in phosphate-buffered saline (PBS) solution using UV–Vis spectroscopy. […] The stability of the metal complexes is often dependent on the pH value and the pH 4.5–5.0 is crucial since endosomal uptake of the complexes by lysosomes can occur.

Row | Structure (SMILES) | IC50 ([1]; MCF7) [µM] | IC50 [2] [µM] | IC50 [3] [µM] | IC50 [4] [µM] | IC50 [5] [µM] | IC50 [6] [µM] | IC50 [7] [µM] | IC50 [8] [µM] | IC50 ([9]; Rattus norvegicus) [µM] | IC50 ([10]; Neural stem cell) [µM] | IC50 [11] [µM] | IC50 [12] [µM] | IC50 ([13]; HEK293) [µM] | IC50 [1] [µM] | IC50 [9] [µM] | IC50 [10] [µM] | IC50 [13] [µM] | further results
1 | Nc1ccc(-c2nc3ccccc3s2)cc1 [BTA, 2-(4-aminophenyl)-benzothiazole, reference compound] | 104 ± 28.6 | 182 ± 7.8 | 275 ± 5 | > 500 | > 500 | 52 ± 5.7 | 76.4 ± 23.4 | 401 ± 136 | 425 ± 47.7 | 60.9 ± 2.9 | > 500 | 463 ± 44.1 | > 500 |  |  |  |  | 
2 | N.N.[Cl][Pt][Cl] [Cisplatin, cis-diamminedichloroplatinum-(II), reference compound] |  | > 500 | 39.1 ± 0.6 | > 500 | > 500 | 54.2 ± 31.8 | 26.2 ± 5.6 | 95.9 ± 6.7 |  |  | 32.1 ± 4.4 | > 500 |  | 204 ± 27.3 | 227 ± 34.3 | 9 ± 0.3 | 65.5 ± 4.1 | IC50 ([11]; listed as cisplatin): 32 µM
3 | NCC(N)C(=O)Nc1ccc(-c2nc3ccccc3s2)cc1 (stereo not drawn) [Compound L1, 2,3-Diamino-N-(4-benzothiazol-2-yl-phenyl)-propionamide] | 65.9 ± 12.3 | 94.9 ± 0.8 | 29.9 ± 0.3 | 100 ± 8.4 | 72.7 ± 2 | 5.9 ± 0.5 | 41.9 ± 3.4 | 65.1 ± 1.9 | 77.8 ± 9.7 | 36.8 ± 3.7 | 138 ± 24.1 | 75.6 ± 3.4 | 68.1 ± 2.8 |  |  |  |  | Solubility in water / aqueous media [14]: soluble in water; Stability, time-dependent UV-Vis spectrum [15]: did not display any significant changes throughout 24 h; Stability, time-dependent UV-Vis spectrum at other pH-values [15]: no obvious changes in the absorptions peak
4 | O=C(Nc1ccc(-c2nc3ccccc3s2)cc1)C1C[NH2+][Pt-2]([Cl])([Cl])[NH2+]1 (stereo not drawn) [Compound L1Pt] |  | 55.7 ± 7.5 | 42.6 ± 5.6 | 167 ± 11.2 | 64.3 ± 2.4 | 7.5 ± 0.1 | 64.7 ± 0.3 | 46.9 ± 5.1 |  |  | 139 ± 0.8 | 106 ± 8.5 |  | 59 ± 11 | 93.3 ± 22.7 | 25.7 ± 1.7 | 54.9 ± 2.8 | Solubility in water / aqueous media [14]: poor solubility in aqueous media; Stability, time-dependent UV-Vis spectrum [15]: did not display any significant changes throughout 24 h; also recorded: remains stable over 24 h; Stability, time-dependent UV-Vis spectrum at other pH-values [15]: no obvious changes in the absorptions peak
5 | O=C(Nc1ccc(-c2nc3ccccc3s2)cc1)C(C/N=C/c1ccccc1O)/N=C/c1ccccc1O (stereo not drawn) [Compound L2, N-(4-Benzothiazol-2-yl-phenyl)-2,3-bis-[(2-hydroxy-benzylidene)amino] propionamide] | 98.1 ± 7.9 | 116 ± 5 | 135 ± 4.4 | 182.4 ± 0.8 | 189 ± 10.3 | 14.2 ± 7 | 47 ± 6 | 79.3 ± 25.4 | 143 ± 32.7 | 28.2 ± 0.1 | > 500 | 159 ± 4.3 | 139 ± 20.1 |  |  |  |  | 
6 | O=C(Nc1ccc(-c2nc3ccccc3s2)cc1)C1C[N+]2=Cc3ccccc3[O][Pt-2]23[O]c2ccccc2C=[N+]13 (stereo not drawn) [Compound L2Pt] |  | > 500 | 173 ± 3.2 | > 500 | > 500 | 31.6 ± 3.6 | 221 ± 15.8 | > 500 |  |  | > 500 | > 500 |  | > 500 | > 500 | 47 ± 4.1 | 212 ± 14.9 | 
7 | O=C(Nc1ccc(-c2nc3ccccc3s2)cc1)C1CNC(c2ccccn2)=N1 (stereo not drawn) [Compound L3, 2-Pyridin-2-yl-4,5-dihydro-1H-imidazole-4-carboxylic acid (4-benzothiazol-2-yl-phenyl)amide] | 190 ± 16.5 | 130 ± 34.7 | 70.5 ± 0.2 | > 500 | > 500 | > 500 | 98.9 ± 3.5 | > 500 | 142 ± 15.3 | 22.4 ± 2.4 | > 500 | > 500 | > 500 |  |  |  |  | 
8 | O=C(Nc1ccc(-c2nc3ccccc3s2)cc1)C1CNC2=[N+]1[Pt-2]([Cl])([Cl])[n+]1ccccc12 (stereo not drawn) [Compound L3Pt] |  | > 500 | > 500 | > 500 | > 500 | > 500 | > 500 | > 500 |  |  | > 500 | > 500 |  | > 500 | > 500 | 32.4 ± 6 | 206 ± 7.4 | 
